Key:
MMP-13 (collagenase-3) = MMP-13 (collagenase-3) (Homo sapiens, UniProt P45452); experiment: In vitro metalloprotease inhibition, MMP-13; type: biochemical
ADAM-10 = target: T1, ADAM-10 (UniProt O14672); experiment: ADAM-10 enzyme assay, cleavage of fluorogenic 10-residue peptide; details: read-out: IC50 ADAM-10; in vitro
T1 sequence (O14672 1-748): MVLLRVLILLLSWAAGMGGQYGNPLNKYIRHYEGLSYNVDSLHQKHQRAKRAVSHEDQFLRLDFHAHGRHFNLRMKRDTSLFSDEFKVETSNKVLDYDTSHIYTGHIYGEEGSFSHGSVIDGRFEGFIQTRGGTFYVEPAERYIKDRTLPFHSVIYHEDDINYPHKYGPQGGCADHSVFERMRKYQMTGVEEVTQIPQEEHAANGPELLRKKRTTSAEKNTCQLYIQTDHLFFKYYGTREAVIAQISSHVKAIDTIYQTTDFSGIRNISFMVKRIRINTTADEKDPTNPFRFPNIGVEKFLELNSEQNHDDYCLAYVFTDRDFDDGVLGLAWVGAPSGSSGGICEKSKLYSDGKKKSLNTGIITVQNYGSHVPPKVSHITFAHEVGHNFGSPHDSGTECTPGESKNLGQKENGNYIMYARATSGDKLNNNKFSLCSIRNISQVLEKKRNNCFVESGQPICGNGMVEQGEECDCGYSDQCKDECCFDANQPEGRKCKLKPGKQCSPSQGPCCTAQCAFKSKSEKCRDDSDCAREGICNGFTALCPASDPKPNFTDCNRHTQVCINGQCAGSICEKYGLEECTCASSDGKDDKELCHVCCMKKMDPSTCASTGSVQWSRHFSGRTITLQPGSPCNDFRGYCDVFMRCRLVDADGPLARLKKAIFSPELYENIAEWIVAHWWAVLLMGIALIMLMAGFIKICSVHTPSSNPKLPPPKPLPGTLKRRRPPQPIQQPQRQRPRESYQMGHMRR
Experimental: mADAM-10 or hADAM-10 activity was measured as the ability to cleave a 10-residue peptide (DABCYL-Leu-Leu-Ala-Gln-Lys-*-Leu-Arg-Ser-Ser-Arg-EDANS). […] Enzyme was diluted to a final active concentration of 5 nM in Buffer A (50 mM HEPES 8.0, 100 mM NaCl, 1 mM CaCl2 and 0.01% NP-40). Serial dilutions for compounds were performed ranging from 100 μM to 0.5 nM using a Beckman Biomek 2000 in polypropylene plates (Greiner). 20 μl of enzyme solution was added to 10 μl of compound in buffer A, and allowed to incubate for 15 min in 384 well black, Greiner, microtiter plates (#781076). 20 μl of substrate (12.5 μM in Buffer A) was then added, resulting in final reaction conditions of 2 nM ADAM-10, 5 μM substrate, and compound concentrations ranging from 20 uM to 0.1 nM. The reaction was incubated for 2 hr at RT, and fluorescence was measured at Ex355, Em460 on a Wallac Victor 2 fluorescence reader. […] This reaction was incubated for 16 hr at RT and fluorescence was read using identical conditions.

MMP-3 (Stromelysin-1) = MMP-3 (Stromelysin-1) (Homo sapiens, UniProt P08254); experiment: In vitro metalloprotease inhibition, MMP-3; type: biochemical
Excerpt: (§1) Blank cells indicate lack of data only.

[1] = target: T2, MMP-2 (72 kDa gelatinase, gelatinase A) (Homo sapiens, UniProt P08253); experiment: In vitro metalloprotease inhibition, MMP-2; type: biochemical
T2 sequence (P08253 110-660): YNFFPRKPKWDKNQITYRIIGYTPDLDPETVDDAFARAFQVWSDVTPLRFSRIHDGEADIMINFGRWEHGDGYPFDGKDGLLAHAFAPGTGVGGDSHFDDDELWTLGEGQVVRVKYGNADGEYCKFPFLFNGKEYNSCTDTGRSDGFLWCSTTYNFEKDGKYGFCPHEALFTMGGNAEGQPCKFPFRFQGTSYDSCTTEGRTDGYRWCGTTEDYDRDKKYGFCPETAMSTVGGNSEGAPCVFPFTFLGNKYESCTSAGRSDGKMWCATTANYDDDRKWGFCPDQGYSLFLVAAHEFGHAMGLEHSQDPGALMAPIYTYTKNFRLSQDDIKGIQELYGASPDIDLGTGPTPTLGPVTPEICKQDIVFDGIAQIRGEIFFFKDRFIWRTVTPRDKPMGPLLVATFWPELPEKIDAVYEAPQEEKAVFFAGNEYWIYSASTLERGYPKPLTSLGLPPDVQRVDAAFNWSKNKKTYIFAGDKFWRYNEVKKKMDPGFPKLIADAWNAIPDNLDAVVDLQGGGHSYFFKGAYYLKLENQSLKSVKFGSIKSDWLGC

[2] = target: T3, MMP-1 (Fibroblast collagenase) (Homo sapiens, UniProt P03956); experiment: In vitro metalloprotease inhibition, MMP-1; type: biochemical
T3 sequence (P03956 100-469): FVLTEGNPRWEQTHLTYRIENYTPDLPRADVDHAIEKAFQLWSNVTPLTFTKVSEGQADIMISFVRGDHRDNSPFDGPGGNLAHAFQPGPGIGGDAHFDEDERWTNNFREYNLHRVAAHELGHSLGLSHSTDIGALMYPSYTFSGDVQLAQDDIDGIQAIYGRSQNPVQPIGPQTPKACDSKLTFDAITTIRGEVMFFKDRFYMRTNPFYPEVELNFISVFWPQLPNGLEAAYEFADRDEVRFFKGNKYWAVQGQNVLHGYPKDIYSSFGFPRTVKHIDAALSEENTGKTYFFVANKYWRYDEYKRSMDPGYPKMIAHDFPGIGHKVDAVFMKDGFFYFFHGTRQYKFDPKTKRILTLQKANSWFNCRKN
Excerpt: as §1

[3] = target: MMP-9 (92 kDa gelatinase, gelatinase B) (Homo sapiens, UniProt P14780); experiment: In vitro metalloprotease inhibition, MMP-9; type: biochemical
[4] = target: MMP-8 (Neutrophil collagenase) (Homo sapiens, UniProt P22894); experiment: In vitro metalloprotease inhibition, MMP-8; type: biochemical
[5] = target: TACE (TNF-alpha converting enzyme, ADAM-17) (Homo sapiens, UniProt P78536); experiment: In vitro metalloprotease inhibition, TACE; type: biochemical
Excerpt: as §1

[6] = system: abdominal aorta of C57/B16 mice after elastase perfusion; experiment: Elastase-perfusion mouse model of AAA; type: in vivo
Excerpt: All mice used in the experiment were commercially obtained C57/B16 inbred strain mice. Throughout the experimental course, mice were allowed free access to food and water. Animals were housed in a controlled animal facility, and all mouse care and treatment occurred under approved protocols.
A total of 89 C57/B16 mice were subjected to transient perfusion of the abdominal aorta according to a protocol known in the art. Briefly, after sedation and preparation, the aorta was approached through a midline laparotomy. The infrarenal aorta was dissected and the diameter was measured under physiologic blood pressure. A segment of infrarenal aorta was isolated and a 5 minute perfusion of this segment was performed through an arteriotomy at 100 mmHg with a solution containing type I porcine pancreatic elastase (PPE 0.16 U/mL). All of the experiments were performed with a single PPE preparation derived from the same commercial source and lot.
Following aortic perfusion the arteriotomy was repaired, the laparotomy was closed and the animal was allowed to completely recover before returning to its standard housing.
Following aortic perfusion, animals were placed into one of 5 treatment groups. […] Three different doses of the agent were used, 50 mg/kg/day (n=17), 125 mg/kg/day (n=17), and 250 mg/kg/day (n=18). There were two mice in each group which died following aortic perfusion, and all others were available for analysis. Control animals (n=18) were similarly treated with daily gavage of the Cremophor diluent only. Of these mice, 16 survived the two weeks following aortic perfusion and underwent final aortic measurements and harvest. […] In this group, 4 mice died prior to the two week harvest, and all others were used in the analysis of aneurysm growth.
Two weeks following elastase perfusion, the mice were again anesthetized; the laparotomy incision was reopened and the final aortic diameter was measured in vivo prior to sacrifice. The animals were humanely sacrificed, and circulating blood and the entire perfused segment of aorta was harvested for RNA extraction, protein extraction or histology.
The aortas from several mice from each experimental group were perfusion fixed with 10% neutral-buffered formalin, removed, and placed in additional formalin for a minimum of 24 hours prior to processing for paraffin embedding. Following paraffin embedding, aortic specimens were cut into 5 μm sections and mounted on glass slides. Each specimen was stained with hematoxylin and eosin to evaluate inflammatory cell infiltration and Accustain® Elastic Stain kit to assess the degree of elastin degradation. Photomicrographs of serial sections were obtained using an Olympus BX60 light microscope equipped with CV12 video capture camera. […]

MMP-3 (Stromelysin-1), sequence (P08254 100-477, species assumed): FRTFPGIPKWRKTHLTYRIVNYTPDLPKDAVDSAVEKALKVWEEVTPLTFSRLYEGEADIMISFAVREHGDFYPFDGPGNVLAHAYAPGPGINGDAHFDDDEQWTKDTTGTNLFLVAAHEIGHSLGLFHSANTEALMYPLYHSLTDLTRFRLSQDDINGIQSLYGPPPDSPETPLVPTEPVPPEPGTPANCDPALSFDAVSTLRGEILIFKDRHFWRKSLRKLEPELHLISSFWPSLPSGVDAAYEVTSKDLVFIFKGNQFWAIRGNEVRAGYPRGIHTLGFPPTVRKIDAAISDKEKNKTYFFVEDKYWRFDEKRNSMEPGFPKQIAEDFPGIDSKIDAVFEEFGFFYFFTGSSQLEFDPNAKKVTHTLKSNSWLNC
TACE (TNF-alpha converting enzyme, ADAM-17), sequence (P78536 215-824): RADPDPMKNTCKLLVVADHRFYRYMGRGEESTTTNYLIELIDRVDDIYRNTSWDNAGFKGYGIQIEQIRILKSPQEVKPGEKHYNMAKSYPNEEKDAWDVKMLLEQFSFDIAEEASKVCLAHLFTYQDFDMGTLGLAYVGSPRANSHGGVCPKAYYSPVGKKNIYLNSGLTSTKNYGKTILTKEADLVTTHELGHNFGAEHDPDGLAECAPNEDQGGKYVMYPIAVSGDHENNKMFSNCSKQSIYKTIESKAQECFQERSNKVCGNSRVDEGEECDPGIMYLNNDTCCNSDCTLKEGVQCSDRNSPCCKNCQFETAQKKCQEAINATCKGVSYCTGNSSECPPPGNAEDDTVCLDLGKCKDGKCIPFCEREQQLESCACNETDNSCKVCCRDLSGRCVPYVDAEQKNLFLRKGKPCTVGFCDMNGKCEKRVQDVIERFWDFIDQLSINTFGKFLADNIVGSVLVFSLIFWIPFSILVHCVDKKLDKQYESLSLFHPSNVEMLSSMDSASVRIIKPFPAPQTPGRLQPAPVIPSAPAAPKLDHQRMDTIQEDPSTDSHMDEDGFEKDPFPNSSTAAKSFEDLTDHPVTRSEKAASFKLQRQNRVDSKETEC
MMP-8 (Neutrophil collagenase), sequence (P22894 101-467, species assumed): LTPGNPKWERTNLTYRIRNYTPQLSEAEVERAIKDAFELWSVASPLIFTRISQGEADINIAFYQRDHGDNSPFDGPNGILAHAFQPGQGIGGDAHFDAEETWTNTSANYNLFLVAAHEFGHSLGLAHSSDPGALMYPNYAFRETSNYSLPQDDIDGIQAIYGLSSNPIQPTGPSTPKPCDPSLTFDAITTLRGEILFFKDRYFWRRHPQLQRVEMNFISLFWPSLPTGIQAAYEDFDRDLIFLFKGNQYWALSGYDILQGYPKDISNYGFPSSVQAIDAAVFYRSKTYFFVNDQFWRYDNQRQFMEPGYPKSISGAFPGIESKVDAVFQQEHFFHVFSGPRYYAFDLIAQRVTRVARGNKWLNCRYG
MMP-9 (92 kDa gelatinase, gelatinase B), sequence (P14780 94-707, species assumed): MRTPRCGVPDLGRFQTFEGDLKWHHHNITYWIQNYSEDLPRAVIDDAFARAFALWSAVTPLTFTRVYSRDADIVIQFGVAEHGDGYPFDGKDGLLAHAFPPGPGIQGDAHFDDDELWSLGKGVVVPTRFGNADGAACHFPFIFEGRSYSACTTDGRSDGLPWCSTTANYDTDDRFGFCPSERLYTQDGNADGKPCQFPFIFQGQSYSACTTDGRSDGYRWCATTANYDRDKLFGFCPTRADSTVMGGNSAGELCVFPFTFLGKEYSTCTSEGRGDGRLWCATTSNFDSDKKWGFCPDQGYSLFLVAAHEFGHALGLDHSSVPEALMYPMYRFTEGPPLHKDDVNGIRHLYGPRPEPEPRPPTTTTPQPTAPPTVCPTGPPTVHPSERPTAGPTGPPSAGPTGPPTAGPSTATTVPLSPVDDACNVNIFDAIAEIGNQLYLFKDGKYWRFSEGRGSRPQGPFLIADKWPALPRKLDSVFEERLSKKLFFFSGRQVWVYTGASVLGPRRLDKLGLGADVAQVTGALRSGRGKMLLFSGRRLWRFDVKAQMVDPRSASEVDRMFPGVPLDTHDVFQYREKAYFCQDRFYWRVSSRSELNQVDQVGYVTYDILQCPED

IC50 (MMP-13 (collagenase-3)) [nM]	IC50 (ADAM-10) [nM]	IC50 (MMP-3 (Stromelysin-1)) [nM]	IC50 [1] [nM]	IC50 [2] [nM]	IC50 [3] [nM]	IC50 [4] [nM]	IC50 [5] [nM]	Structure (SMILES)	animals which did not develop aneurysms (% ΔAD not greater than 100%) ([6]; mice, 250 mg/kg/day daily gavage, 2 weeks, not statistically different than controls) [%]	aortic histology: degree of elastin damage and inflammatory cell inflammation ([6]; mice, 50, 125, 250 mg/kg/day daily gavage, aorta at harvest, H&E and VVG stain)	aortic diameters at harvest versus control animals ([6]; mice, all doses (50, 125, 250 mg/kg/day), 2 weeks)	maximal diameters (% ΔAD) of all animals ([6]; mice, low and intermediate dose groups (50 and 125 mg/kg/day), 2 weeks)
< 50	< 50	< 50	< 50	1000 to 20000	–	–	–	O=C(NO)[C@H]1CN(C(=O)c2cc(F)c(O)c(F)c2)CCN1S(=O)(=O)c1cc(F)c(Oc2ccc(Cl)cc2)c(F)c1 [Entry 41]	–	–	–	–
< 50	–	50 to 1000	< 50	1000 to 20000	50 to 1000	< 50	50 to 1000	O=C(NO)[C@H]1CN(C(=O)N2CCOCC2)CCN1S(=O)(=O)c1cc(F)c(Oc2ccc(Cl)cc2)c(F)c1 [Entry 30]	–	–	–	–
–	–	50 to 1000	–	1000 to 20000	–	–	50 to 1000	COCCOC(=O)N1CCN(S(=O)(=O)c2cc(F)c(Oc3ccc(Cl)cc3)c(F)c2)[C@@H](C(=O)NO)C1 [Entry 15]	12	inversely correlated with the dose of the agent administered	significantly smaller than control animals	greater than 100%

Reference: US20120270884A1, “Methods of Treating Aneurysmal Dilatation, Blood Vessel Wall Weakness and Specifically Abdominal Aortic and Thoracic Aneurysm Using Matrix Metalloprotease-2 Inhibitors” (SYMPHONY EVOLUTION, INC., priority 2009, published 2012)
